Data reported in patent US20220332774A1, “THERAPEUTIC MITOCHONDRIAL PEPTIDES” (priority 2019, published 2022).

How the values were obtained:
3T3-L1 Mouse Adipocytes = experiment: Free fatty acid levels in cultured 3T3-L1 mouse adipocytes (isoproterenol stimulated); format: cell-based; settings: for Percent of Isoproterenol Control Activity: free fatty acid in medium, 5 μM peptide, 20-22 h pre-incubation then 3 h with 0.1 nM isoproterenol, isoproterenol alone = 100%
Method: The effect of the peptides on fatty acid metabolism can be assessed using an assay to monitor free fatty acid levels produced by cultured cells such as mouse adipocytes. Peptide arrays were initially prepared as 5 mM stock in DMSO and diluted to 0.5 mM in H2O; peptides were used at a final concentration of 5 μM (0.1% DMSO). Calculations for peptide concentrations based on approximate molecular weight of 2000 Daltons. […] Mouse 3T3-L1 cells purchased from ZenBio (Research Triangle Park, NC) were seeded at 3,000 cells per well in 96-well plates in Pre-adipocyte Medium (Zen-Bio) and grown to confluence at 37° C. in a humidified atmosphere of 5% CO2/95% air. Two days after confluence, cells were placed in Adipocyte Differentiation Medium (Zen-Bio) and cultured for three additional days at 37° C. in a humidified atmosphere of 5% CO2/95% air. The culture medium was then replaced with Adipocyte Maintenance Medium (Zen-Bio) and the cells maintained for an additional 9 days at 37° C. in a humidified atmosphere of 5% CO2/95% air with partial medium replacement every other day. Following 12 days of differentiation, medium was replaced Adipocyte Maintenance Medium without insulin and the cultures placed at 37° C. in a humidified atmosphere of 5% CO2/95% air. On day 13 of differentiation, test peptides were added directly to each well (without replacing the medium) at a final concentration of 5 μM in 0.1% DMSO and incubated for 20-22 hours at 37° C. in a humidified atmosphere of 5% CO2/95% air. […] Cells were incubated for 3 hours in Assay Buffer (Zen-Bio) at 37° C. in a humidified atmosphere of 5% CO2/95% air. Following 3 h incubation, conditioned medium from each well was transferred to a fresh 96-well plate. Free fatty acid concentrations in the medium were determined using a Free Fatty Acid Assay kit (Zen-Bio) according to the manufacturer's instructions; absorbance was measured using a Cytation 3 plate reader at 540 nm (BioTek, Winooski, Vt.). Treatment with 0.1 nM isoproterenol alone was used as the free fatty acid level stimulatory control. Absorbance values were expressed as percent control activity relative to 0.1 nM isoproterenol alone treated cells, 100%. The relative standard deviation of the isoproterenol control was <10%. Insulin at 0.25 nM was used as a potent control for decreasing free fatty acid levels. […] Data presented are representative values from 2 independent experiments with each data point performed in triplicate in each independent experiment.

C2C12 Cells = experiment: Glucose utilization in cultured C2C12 cells (myotubes); format: cell-based, mouse; settings: 22 h; for Percent of Control Activity: glucose concentration in medium relative to untreated cells, 5 μM peptide
Method: The effect of the peptides on glucose homeostasis can be assessed using an assay to monitor glucose utilization by cultured cells such as mouse myotubes. Peptide arrays were initially prepared as 5 mM stock in DMSO and diluted to 0.5 mM in H2O; peptides were used at a final concentration of 5 μM (0.1% DMSO). Calculations for peptide concentrations based on approximate molecular weight of 2000 Daltons. C2C12 mouse muscle cell line was purchased from Millipore Sigma (Saint Louis, Mo.). C2C12 cells were seeded in standard medium (DMEM/low glucose (1 g/L)+10% Fetal Bovine Serum+antibiotics) at 7,500 cells/well on 96-well plates and grown to confluence at 37° C. in a humidified atmosphere of 5% CO2/95% air. Three days after plating the medium was removed and with Differentiation Medium (DMEM/low glucose (1 g/L)+2% Horse Serum+antibiotics) added. The cultures were placed at 37° C. in a humidified atmosphere of 5% CO2/95% air for 5 days with partially replacement of medium daily. After 5 days of differentiation, the medium was removed from myotube cultures and replaced with Assay Medium (DMEM/low glucose (1 g/L)+antibiotics). Culture were placed at 37° C. in a humidified atmosphere of 5% CO2/95% air for 5 h. Following the 5 h incubation the medium was removed and fresh Assay Medium containing compounds was added; 5 μM peptide or 1 mM metformin as a potent stimulator of glucose utilization. Cells were incubated for 22 h at 37° C. in a humidified atmosphere of 5% CO2/95% air. Following 22 h incubation, conditioned medium from each well was transferred to a fresh 96-well plate. Glucose concentrations in the medium were determined using a Glucose Assay kit (Abcam; Cambridge, Mass.) according to the manufacturer's instructions; absorbance measured using a Cytation 3 plate reader at 570 nm (BioTek, Winooski, Vt.). Untreated cells were used as reference for basal glucose utilization. Absorbance values were expressed as percent control activity relative to untreated treated cells for 5 μM peptide. The relative standard deviation from plate to plate of untreated control was <10%. […] Data presented are representative values from 2-3 independent experiments with each data point performed in triplicate in each independent experiment.

H4-IIE Cells = experiment: Glucose production in cultured H4-IIE cells; format: cell-based, rat; settings: 24 h; for Percent of Control Activity: glucose concentration in medium relative to untreated cells, 5 μM peptide
Method: The effect of the peptides on glucose homeostasis can be assessed using an assay to monitor glucose production by cultured cells such as rat hepatocytes. Peptide arrays were initially prepared as 5 mM stock in DMSO and diluted to 0.5 mM in H2O; peptides were used at a final concentration of 5 μM (0.1% DMSO). Calculations for peptide concentrations based on approximate molecular weight of 2000 Daltons. H4-IIE rat hepatic cell line was purchased from American Type Culture Collection (Manassas, Va.). H4-IIE cells were seeded in standard medium (DMEM/high glucose+10% Fetal Bovine Serum+antibiotics) at 100,000 cells/well on 96-well plates and allowed to adhere overnight at 37° C. in a humidified atmosphere of 5% CO2/95% air. 24 h after seeding, the medium was removed, cells were rinsed with glucose free DMEM, and the medium replaced with Glucose Production Medium (glucose free DMEM+2 mM sodium pyruvate+10 mM sodium lactate+antibiotics). The cultures were placed at 37° C. in a humidified atmosphere of 5% CO2/95% air overnight. The next morning, the medium was removed and fresh Glucose Production Medium containing compounds was added; 5 uM peptide or 0.5-1 nM insulin as a potent inhibitor of glucose production. Cells were incubated for 24 h at 37° C. in a humidified atmosphere of 5% CO2/95% air. Following 24 h incubation, conditioned medium from each well was transferred to a fresh 96-well plate. Glucose concentrations in the medium were determined using a Glucose Assay kit (Abcam; Cambridge, Mass.) according to the manufacturer's instructions; absorbance measured using a Cytation 3 plate reader at 570 nm (BioTek, Winooski, Vt.). Untreated cells were used as reference for maximal glucose production. Absorbance values were expressed as percent control activity relative to untreated treated cells for 5 μM peptide. The relative standard deviation from plate to plate of untreated control was <25%. […] Glucose levels for 0.5-1 nM insulin treatment were <5% of the untreated control value. Data are presented as representative values from 2-3 independent experiments with each data point performed in triplicate in each independent experiment.

| Compound | Percent of Isoproterenol Control Activity (3T3-L1 Mouse Adipocytes) | Percent of Control Activity (C2C12 Cells) | Percent of Control Activity (H4-IIE Cells) | reduction of extracellular glucose compared to untreated controls (C2C12 Cells; metformin 1 mM, across all plates) | Free fatty acid levels (3T3-L1 Mouse Adipocytes; insulin 0.25 nM with 0.1 nM isoproterenol, 3 h) | Glucose levels, % of the untreated control value (H4-IIE Cells; 0.5-1 nM insulin) |
| --- | --- | --- | --- | --- | --- | --- |
| 1 (MAAAPSGCPDPTS) [compound 1] | 85% | 99% | 128% | – | – | – |
| 2 (MAASVERGFIFLV) [compound 2] | 93% | 99% | 119% | – | – | – |
| 3 (MAGGFMLMIVVMKLMAPKMEETPA) [compound 3] | 91% | 94% | 118% | – | – | – |
| 4 (MAHTFPLNKTSR) [compound 4] | 80% | 101% | 116% | – | – | – |
| 5 (MAHYSQIPSRPHGWPPSD) [compound 5] | 98% | 101% | 122% | – | – | – |
| 6 (MAIAVVYPKTTIIPPK) [compound 6] | 80% | 100% | 122% | – | – | – |
| 8 (MAPPLPPLEPTVKLT) [compound 8] | 102% | 102% | 90% | – | – | – |
| 9 (MAQTMPMYPNGSFFPE) [compound 9] | 98% | 98% | 90% | – | – | – |
| 10 (MATKKNFMEKGTRAGDMGSKPHS) [compound 10] | 94% | 100% | 87% | – | – | – |
| 11 (MAVVDGWVNTWVVPKSASPWKN) [compound 11] | 84% | 96% | 76% | – | – | – |
| 13 (MCSCVYVYSYCKYMVCSHDKP) [compound 13] | 92% | 101% | 87% | – | – | – |
| 14 (MDGCALLAVL) [compound 14] | 101% | 100% | 120% | – | – | – |
| 15 (MDMVPQGKDEKL) [compound 15] | 90% | 96% | 88% | – | – | – |
| 16 (MDSWVVGVNEWG) [compound 16] | 89% | 100% | 89% | – | – | – |
| 18 (MEAMGLAWNQLWGVRFLPFLS) [compound 18] | 102% | 97% | 99% | – | – | – |
| 19 (METDLDYSGLNSDHVGL) [compound 19] | 89% | 94% | 99% | – | – | – |
| 20 (MFDQENVVTSTESSPS) [compound 20] | 88% | 102% | 97% | – | – | – |
| 23 (MFHLRYHNHRYPHRRQSI) [compound 23] | 94% | 99% | 96% | – | – | – |
| 24 (MFKLSFYFYVV) [compound 24] | 92% | 94% | 96% | – | – | – |
| 25 (MFLVGWWGMV) [compound 25] | 91% | 97% | 94% | – | – | – |
| 26 (MGACQGGSDESN) [compound 26] | 93% | 99% | 97% | – | – | – |
| 27 (MGCDDNVVDVVVT) [compound 27] | 87% | 95% | 100% | – | – | – |
| CN(C)C(=N)N=C(N)N [Metformin, reference compound] | – | – | – | 50-70% | – | – |
| insulin [reference compound] | – | – | – | – | at or below levels for unstimulated control without isoproterenol | < 5% |
